Test results: US20230355773A1, “[…] DRUG CONJUGATES” (P.I.F. Entrepreneurs Ltd., priority 2020, published 2023)
Like-named read-outs stand apart in the source and are kept apart here.

Key:
[1] = test system: activated macrophages (THP1 monocytes transformed with PMA, infected with Leishmania donovani); conditions: for activated macrophage survival: 0.1, 1 and 10 µg/ml, 12-14 hours of incubation, FIG. 1
Description: (§1) A macrophage killing assay was performed in order to determine potential of conjugates described herein for treatment of macrophage-related diseases. THP1 monocytes were transformed into macrophages for using phorbol myristate acetate (PMA). […] The data shown in FIG. 1 represents macrophage survival percent after 12-14 hours of incubation with conjugates. […] In the figure, series 1 represents control macrophages which were not infected. Series 2, 3 and 4 represent the 0.1, 1 and 10 µg/ml dosages. The values shown in these series represented number of cells, as normalized to control, non-infected macrophages.
(§2) Media used for macrophage assay: RPMI with 10% FCS, supplemented with pencillin streptomycin and glutamine. The compounds were prepared in phosphate buffered saline with pH adjusted to 7.6 and were used immediately after preparation.
Infection of macrophage: The macrophages were infected with 5x times with Leishmania donovani - for a density of 1x10^5 monocytes transformed to macrophage, the infection density is 5 x 10^5 L.donovani.
(§3) The experiment was performed according to the following schedule: • Monocyte to macrophage transformation: 0 to 48 hours • Macrophage Infection with Leishmania: 48-84 hours • Treatment with compound: 84 - 96 hours • Plate used for assay: Microscopy compatible glass bottom plate -24 wells.
The macrophages that were alive were counted in five different fields of the wells for different concentration and the average count was used for the assay. Based on the count of the control macrophages, the % was adjusted.

[2] = test system: non-infected macrophages (THP1 monocytes transformed with PMA); conditions: 10 µg/ml, live imaging, 8 hours, FIG. 2
Description: as §1, with “FIG.” for “FIG. 1 represents macrophage survival percent after 12-14 hours of incubation with conjugates.”
as §2, §3

[3] = fasted mice
Description: CC57BL/6 mice aged approximately 9 weeks were weighed and acclimated to facility conditions. Animals were assigned to 3 treatment groups based on their body weights, creating homogenous groups of 5 mice in each group. After fasting, blood glucose of levels of mice were tested at time 0, at which time the test drug was administered, then subsequently at 30, 60, 90 and 120 minutes post administration, using blood glucose test strips.

[4] = test system: neuroinflammatory response induced by LPS; conditions: I5 100 µg per mouse s.c.
Description: 120 mice (female C57BL/6) mice approximately 6 weeks old were assigned into groups based on body weight, creating homogenous groups, and acclimated to facility conditions over 5 days.
A neuroinflammatory response was induced in all mice by intraperitoneal administration of 5 mg/kg of LPS. […] Group 2: dexamethasone at […]. Group 3: Vehicle. Test items were administered at the following time points: 30 minutes before LPS injection, 2 hours post-LPS injection and 10 hours post LPS injection (where applicable). 10 animals from each group were sacrificed at the following time points: 4, 8, 24 and 48 hours post LPS administration. Brains were collected and preserved in buffered 4% formaldehyde. Bronchoalveolar lavage fluid was extract from lungs of all animals.

[5] = test system: cytokines levels after LPS induction; conditions: 100 µg per mouse s.c.
[6] = female, ICR, mouse, in vivo
in vivo = conditions: female, ICR, mouse
[7] = 24 hours following LPS induction
[8] = plasma, parameters used for estimating t½
[9] = plasma, single IV, I5 200 mg/kg, dexamethasone sodium phosphate 40 mg/kg

**Q.** Which “time to killing of activated macrophages” value ([1]; 10 µg/ml, live imaging, FIG. 2) does the source give for `C[C@@H]1C[C@H]2[C@@H]3CCC4=C/C(=N/OCCCO[C@H]5O[C@H](CO)[C@@H](O)[C@H](O)[C@@H]5O)C=C[C@]4(C)[C@@]3(F)[C@@H](O)C[C@]2(C)[C@@]1(O)C(=O)CO` [Compound I5, 1-((8S,9R,10S,11S,13S,14S,16R,17R,E)-9-Fluoro-11,17-Dihydroxy-10,13,16-Trimethyl-3-((3-(((2S,3S,4S,5S,6R)-3,4,5–Trihydroxy-6-(Hydroxymethyl)Tetrahydro-2H-Pyran-2-yl)oxy)propoxy)imino)-6,7,8,9,10,11,12,13,14,15,16,17-Dodecahydro-3H-cyclopenta[a]phenanthren-17-yl)-2-Hydroxyethan-1-One] here?
**A.** Its value is no more than 8 h.

**Q.** What about the activated macrophage survival [1] of the same compound?
**A.** Its activated macrophage survival is “particularly effective”.

**Q.** And the “effect on macrophages not activated by infection” value [2]?
**A.** Its value is “remained unchanged”.

**Q.** What about the “blood glucose relative to baseline” value ([3]; 100 µg per mouse, 30 to 120 minutes post-administration) of the same compound?
**A.** The value was “not increased above baseline”.

**Q.** And the “blood glucose relative to baseline” value ([3]; 2500 µg per mouse (25-fold molar equivalent of 65 µg dexamethasone))?
**A.** The value was “no elevation of blood glucose level”.

**Q.** What about the “Clinical score - Appearance” value ([4]; 24 Hr. following LPS induction, vs groups 2 and 3) of the same compound?
**A.** Its value is “best clinical score”.

**Q.** And the “Clinical score - Eye condition” value [4, 7]?
**A.** The value was “best clinical score”.

**Q.** What about the “Clinical score - Response to stimulus” value [4, 7] of the same compound?
**A.** The value was “best clinical score”.

**Q.** What about the Total clinical score ([4]; compared to groups 2 and 3) of the same compound?
**A.** The Total clinical score was “best clinical score”.

**Q.** What about the “blood-brain barrier penetration, evidenced by CNS cytokine levels” value ([5]; LPS model) of the same compound?
**A.** Its value is “able to penetrate the blood-brain barrier”.

**Q.** And the “Cytokines levels in Bronchoalveolar lavage fluid” value ([5]; IL-1 a and MCP1 (4 Hr. post LPS), MCP1 (8 Hr. post LPS))?
**A.** The value was “immunomodulatory effect”.

**Q.** What about the “Cytokines levels in brains” value ([5]; IL-2 (4 and 8 Hr. post LPS), IL-10 (8 Hr.), VEGF a (8 and 24 Hr.), vs groups 2 and 3) of the same compound?
**A.** Its value is “immunomodulatory effect”.

**Q.** And the “Cytokines levels in serum” value ([5]; IL-17 and RANTES (4 Hr. post LPS), LIF (8 Hr. post LPS))?
**A.** Its value is “immunomodulatory effect”.

**Q.** And the relative systemic exposure (200 mg Compound I5 compared to 40 mg Dexamethasone)?
**A.** Its relative systemic exposure is 4.2%.

**Q.** What about the “elimination curve in plasma” value (mice after IV dosing) of the same compound?
**A.** The value was “two-phase elimination curve”.

**Q.** And the AUC%Extrap [8]?
**A.** The AUC%Extrap was 0.403%.

**Q.** And the Lambda z [8]?
**A.** The Lambda z was 0.164 h⁻¹.

**Q.** And the AUCINF/Dose (plasma, single IV)?
**A.** Its AUCINF/Dose is 93.4 h^∗ng/mL/mg/kg.

**Q.** What about the “Exprel, relative systemic exposure [AUCinf/dose (Compound I5)/AUCinf/dose (Dexamethasone)] x 100” value (plasma, single IV, I5 200 mg/kg vs dexamethasone 40 mg/kg) of the same compound?
**A.** The value was 4.2%.

**Q.** What about the CL [9] of the same compound?
**A.** The CL was 10.7 L/h/kg.

**Q.** And the Tlast [9]?
**A.** Its Tlast is 24.0 h.

**Q.** What about the “Concentration in brain (CSF) (pooled)” value [6] of the same compound?
**A.** Its value is 0.0294 µg/mL.

**Q.** And the “pooled CSF levels detected” value ([6]; iv)?
**A.** The value was 6.86 to 29.4 ng/mL.

**Q.** What about the “CSF levels as fold the LLOQ (5.00 ng/mL)” value ([6]; iv, 200 mg/kg) of the same compound?
**A.** The value was 1.4-5.9 fold.

**Q.** What about the half-life (in vivo; T½, plasma, table Parameters used for estimating t½ in plasma) of the same compound?
**A.** Its half-life is 4.23 h.

**Q.** And the Tmax (in vivo; iv)?
**A.** The Tmax was 5 min.

**Q.** What about the clearance (in vivo; iv) of the same compound?
**A.** The clearance was 10.7 L/h/kg.

**Q.** And the half-life (in vivo; iv, T½, plasma, single IV, I5 200 mg/kg, dexamethasone sodium phosphate 40 mg/kg, table PK parameters in plasma)?
**A.** The half-life was 4.23 h.

**Q.** And the Vd (in vivo; iv, Vss, plasma, single IV, I5 200 mg/kg, dexamethasone sodium phosphate 40 mg/kg)?
**A.** The Vd was 12.1 L/kg.

**Q.** And the Vd (in vivo; iv, Vz, plasma, single IV, I5 200 mg/kg, dexamethasone sodium phosphate 40 mg/kg)?
**A.** The Vd was 65.3 L/kg.

**Q.** And the Vd (in vivo; iv, distribution volume, Vss, plasma, IV)?
**A.** The Vd was 12.1 L/kg.

**Q.** And the half-life (in vivo; iv, terminal elimination half-life in plasma, mice after IV dosing)?
**A.** The half-life was roughly 4.2 h.

**Q.** Which activated macrophage survival [1] does the source give for `CC(CC(=O)N/N=C(\CO)[C@@]1(O)[C@H](C)C[C@H]2[C@@H]3CCC4=CC(=O)C=C[C@]4(C)[C@@]3(F)C(O)C[C@@]21C)O[C@H]1OC(CO)[C@@H](O)C(O)C1O` (stereo partly shown) [MD4] here?
**A.** Its activated macrophage survival is “particularly effective”.

**Q.** Which “increase of blood sugar levels (change from baseline)” value ([3]; dexamethasone 65 mg (so in the source), 30 to 120 minutes post administration) does the source give for `C[C@@H]1C[C@H]2[C@@H]3CCC4=CC(=O)C=C[C@]4(C)[C@@]3(F)C(O)C[C@]2(C)[C@@]1(O)C(=O)CO` (stereo partly shown) [dexamethasone, reference compound] here?
**A.** Its value is “about 15%”.
